Patent US7056908B2, “Pharmaceutical compositions and methods for preventing skin tumor formation and causing regression of existing tumors” (priority 1991, dated 2006)

How the values were obtained:
primary keratinocytes [1] = format: cell-based, mouse; conditions: 60 nM bryostatin for 1 day
Experimental: EGF binding was assessed in 6-well tissue culture dishes plated at a cell density of 2.5×10^6 cells/well (Strickland, J. E. et al, “Interaction of epidermal growth factor with basal and differentiating epidermal cells of mice resistant and sensitive to carcinogenesis,” Carcinogenesis, 5: 735–740, 1984). […] A second set of cultures received, in addition, 1 μg/ml unlabelled EGF to assess non-specific binding of radioactive ligand. Following the incubation period, cultures were washed 4 times with ice-cold binding buffer, harvested in 1.5 ml lysis buffer (0.1 M tris (pH 7.4), 0.5% SDS, 1 mM EDTA), and radioactivity determined by scintillation counting.
Exposure of a variety of cultured cell types to TPA results in inhibition of EGF binding which is attributed to PKC-mediated phosphorylation of the EGF receptor (Diamond, L., “Tumor promoters and cell transformation,” In: D. Grunberger and S. P. Goff. (eds.), Mechanisms of Cellular Transformation by Carcinogenic Agents, pp. 73–133, New York: Pergamon Press. 1987).
Each point is the mean of trilpicate dishes±standard error of the mean.

primary keratinocytes [2] = experiment: Cornified envelope formation in primary keratinocytes; format: cell-based, mouse; conditions: additional experiment, 60 nM bryostatin
Experimental: Cornified Envelope Quantitation. Keratinocytes were analyzed for cornified envelope formation as described (Nagae, S. et al, “Effect of retinoic acid on cornified envelope formation: difference between spontaneous envelope formation in vivo or in vitro and expression of envelope competence,” J. Invest., Dermatol., 89: 51–58, 1987), with minor modifications. Floating cells were harvested by collecting culture medium from each 60 mm dish and combining with two washes using phosphate-buffered saline without Ca^2+ and Ms^+2 (PBS). Cells were pelleted for 5 minutes at 1000 rpm in a benchtop clinical centrifuge and resuspended in 100 μl of lysis buffer (2% sodium dodecyl sulfate (SDS) and 20 mM dithiothreitol in PBS). Attached cells were harvested in 250 μl lysis buffer, combined with the preparation of floating cells, and incubated at 95° for 10 minutes. The non-solubilized, intact cornified envelopes, characteristic of terminally differentiated keratinocytes, were counted using a hemocytometer (Nagae, S. et al, “Effect of retinoic acid on cornified envelope formation: difference between spontaneous envelope formation in vivo or in vitro and expression of envelope competence,” J. Invest. Dermatol., 89: 51–58, 1987).
Floating and attached cell populations were harvested and cornified envelopes isolated. Data are mean values for three separate dishes±standard error of the mean from one experiment.
7 day old primary keratinocytes were cultured with or without 60 nM bryostatin for 15 hours. […] Each data bar is the average value from duplicate dishes with the range indicated by error bars.

## CCC/C=C/C=C/C(=O)O[C@H]1/C(=C/C(=O)OC)C[C@H]2C[C@H]([C@@H](C)O)OC(=O)C[C@H](O)C[C@@H]3C[C@H](OC(C)=O)C(C)(C)[C@](O)(C[C@@H]4C/C(=C/C(=O)OC)C[C@H](/C=C/C(C)(C)[C@]1(O)O2)O4)O3 [bryostatin]
Primary keratinocytes [1]; average over a 4 hour period
  block by bryostatin pre-treatment of staurosporine-mediated inhibition of 125I-EGF binding: 50%
Primary keratinocytes [1]; over a 4 hour period
  block by bryostatin pre-treatment of TPA-mediated inhibition of 125I-EGF binding: completely blocked
Primary keratinocytes [2]; TPA-treated cultures
  reduction of cornified envelope formation by bryostatin pre-treatment: 70%
Primary keratinocytes [2]; staurosporine-treated cultures
  reduction of cornified envelope formation by bryostatin pre-treatment: 70%
